Reference: patent US10244779B2, “Method of improving stability of sweet enhancer and composition containing stabilized sweet enhancer” (SENOMYX, INC., priority 2010, dated 2019)
Blank lines part the entries; values can stand above or below the molecule they belong to.

Legend:
[1] = Photostability test of sweet enhancers with/without photostabilizers in Q-Sun Xenon Test Chamber
Procedure: Aqueous buffer solution at pH 7.1 contains 50 mM potassium dihydrogen phosphate and ˜32 mM sodium hydroxide (solutions of 1.0 M hydrochloric acid and 1.0 M sodium hydroxide are used to adjust pH). Aqueous buffer solution at pH 4.0 contains 50 mM citric acidmonosodium salt and ˜7.4 mM sodium hydroxide (solutions of 1.0 M hydrochloric acid and 1.0 M sodium hydroxide are used to adjust pH). Aqueous buffer solution at pH 2.8 contains 50 mM citric acid and ˜16 mM sodium hydroxide (solutions of 1.0 M hydrochloric acid and 1.0 M sodium hydroxide are used to adjust pH).
The stock solutions of the test compounds at 25 mM are made by dissolving the compounds in dimethyl sulfoxide. The solutions of the stabilizers are made by dissolving the materials in the aqueous buffers. The stock solutions are then diluted to 25 μM with the stabilizer solutions to prepare the test solution and 4-mL aliquots of the solutions are transferred to 20-mL clear glass vial for testing.
Accelerated photodegradation was studied using a Q-Sun Xenon Test Chamber (Q-Lab Model No. Xe-1-SC) at an irradiance setting of 350 mW/m^2 at 340 nm and temperature of 25 degrees Celsius. To put this in perspective, 24 hours of constant Q-Sun irradiation at these settings is approximately equivalent to 12.4 days of direct sunlight in the southwestern United States. At 0, 1, 2, 4, and 6 hours from the beginning of the radiation, a 0.4-mL aliquot from each vial is pippeted out to a 1-mL glass insert for analysis.
The samples are analyzed using an Agilent 1100 LC/MSD equipped with a quaternary pump and a diode-array detector (DAD). The peak areas from the MSD chromatograms are used for quantitation, and the photostability is shown by plotting the percentages of the test compound which remains intact at all time points. The peak areas from the DAD chromatograms are used for quantitation for stabilizers with concentration at 250 uM or higher. The instrument conditions are listed below. • Column: YMC ODS AQ 3 um, 4.0×23 mm • Column Temperature: Room temperature • Auto-sampler Temperature: Room temperature • Mobile Phase A: Water • Mobile Phase B: Methanol • Mobile Phase C: 1% Formic Acid • Gradient: % C is constant at 5%; % B from 5% to 95% in 2 min, then back to 5% at 2.1 min, and then held at 5% until 3.25 min; flow rate is 2 mL/min • Injection volume: 10 uL • Data Collection time: 2.75 minutes • MSD ion source: APCI • MSD Signal settings: Positive, selected ion monitoring (SIM) at the mass of the expected molecular ions. • UV detection wavelength: 230 nm. • MSD detection start time: 0.5 min
FIGS. 2 and 3 illustrate the photostability study of Compounds A and B under these condition: Direct sunlight was modeled using a Q-Sun Xenon Test Chamber (Q-Lab Model No. Xe-1-SC) at an irradiance setting of 350 mW/m^2 @340 nm, 25° C. Test samples were irradiated in the Q-Sun at these settings in pH 2.8 buffer with/without Compounds A and B in the presence/absence of the photo-stabilizers A (chlorogenic acid) and B (rutin, a.k.a. quercetin-3-rutinoside).
Direct sunlight was modeled using a Q-Sun Xenon Test Chamber (Q-Lab Model No. Xe-1-SC) at an irradiance setting of 350 mW/m^2 @340 nm, 25° C. Test samples were irradiated in the Q-Sun at these settings in pH 2.8 buffer with Compound A in the presence/absence of the photo-stabilizers. […] Direct sunlight was modeled using a Q-Sun Xenon Test Chamber (Q-Lab Model No. Xe-1-SC) at an irradiance setting of 350 mW/m^2 @340 nm, 25° C. Test samples were irradiated in the Q-Sun at these settings in pH 2.8 buffer with 25 μM of Compound A in the presence/absence of the photo-stabilizers at a concentration of 100 ppm. […] Direct sunlight was modeled using a Q-Sun Xenon Test Chamber (Q-Lab Model No. Xe-1-SC) at an irradiance setting of 350 mW/m^2 @340 nm, 25° C. Test samples were irradiated in the Q-Sun at these settings in pH 2.8 buffer with sweet enhancer Compound E in the presence/absence of the photostabilizers.

[2] = % of 25 μM Compound A remaining with the cinnamic acid or coumarin derivative at 100 ppm (Table 4), pH 2.8 buffer, Q-Sun 350 mW/m^2 @340 nm, 25° C.

Compound: COc1cc(C=CC(=O)O)cc(OC)c1O (stereo in doubt) [sinapinic acid]
- % Remaining @ 1 hr [1, 2]: 100.00%
- % Remaining @ 2 hrs [1, 2]: 99.98%
- % Remaining @ 4 hrs [1, 2]: 100.12%
- % Remaining @ 6 hrs [1, 2]: 98.52%

Compound: COc1ccc2ncc(C(=O)O)c(N)c2c1 [Compound B]
- % of compound degraded after 6 hr of irradiation ([1]; pH 2.8): about 80%

Compound: CCC(CC)COc1cccc2nc(C)c(C(=O)O)c(N)c12 [Example 22, 4-amino-5-(2-ethylbutoxy)-2-methylquinoline-3-carboxylic Acid]
- melting point: 145 to 151 °C

Compound: Cc1nc2cccc(OCC(C)(C)NC(=O)c3ccncc3)c2c(N)c1C(=O)O [Example 24, 4-amino-5-(2-(isonicotinamido)-2-methylpropoxy)-2-methylquinoline-3-carboxylic Acid]
- melting point: 195 to 198 °C

Compound: Cc1nc2cccc(OCC(C)(C)NC(=O)c3cccc(O)c3)c2c(N)c1C(=O)O [Example 25, 4-amino-5-(2-(3-hydroxybenzamido)-2-methylpropoxy)-2-methylquinoline-3-carboxylic Acid]
- melting point: 195 to 198 °C

Compound: Cc1nc2cccc(OC3CCCCC3)c2c(N)c1C(=O)O [Example 36, 4-amino-5-(cyclohexyloxy)-2-methylquinoline-3-carboxylic Acid]
- melting point: 220 to 221.5 °C

Compound: Cc1nc2cccc(OCC(C)C)c2c(N)c1C(=O)O [Example 41, 4-amino-5-isobutoxy-2-methylquinoline-3-carboxylic Acid]
- melting point: 203.7 °C

Compound: Cc1nc2cccc(OCC(C)(C)C(=O)NC3CC3)c2c(N)c1C(=O)O [Example 135, 4-amino-5-(3-(cyclopropylamino)-2,2-dimethyl-3-oxopropoxy)-2-methyl-quinoline-3-carboxylic Acid]
- melting point: 227 to 229 °C

Compound: Cc1nc2cccc(OCC(C)(C)C(=O)NC3CCC3)c2c(N)c1C(=O)O [Example 136, 4-amino-5-(3-(cyclobutylamino)-2,2-dimethyl-3-oxopropoxy)-2-methylquinoline-3-carboxylic Acid]
- melting point: 183 to 187 °C

Compound: Cc1nc2cccc(O[C@H]3CC[C@H](NC(=O)C(C)C)CC3)c2c(N)c1C(=O)O [Example 137, 4-amino-5-(((1,4)-trans-4-isobutyramidocyclohexyl)oxy)-2-methylquinoline-3-carboxylic Acid]
- melting point: 183 to 185 °C

Compound: Cc1nc2cccc(OCC(C)(C)NC(=O)CC(C)C)c2c(N)c1C(=O)O [Example 138, 4-amino-2-methyl-5-(2-methyl-2-(3-methylbutanamido)propoxy)quinoline-3-carboxylic Acid]
- melting point: 195 to 198 °C

Compound: Cc1nc2cccc(OCC(C)(C)NC(=O)C(C)C)c2c(N)c1C(=O)O [Example 139, 4-amino-5-(2-isobutyramido-2-methylpropoxy)-2-methylquinoline-3-carboxylic Acid]
- melting point: 184 to 186 °C

Compound: Cc1nc2cccc(OCC(C)(C)NC(=O)C3CCOCC3)c2c(N)c1C(=O)O [Example 140, 4-amino-2-methyl-5-(2-methyl-2-(tetrahydro-2H-pyran-4-carboxamido)-propoxy)quinoline-3-carboxylic Acid]
- melting point: 170 to 173 °C

Further lines, results first:

- melting point: 189 to 193 °C
Compound: CCC(=O)NC(C)(C)COc1cccc2nc(C)c(C(=O)O)c(N)c12 [Example 141, 4-amino-2-methyl-5-(2-methyl-2-propionamidopropoxy)quinoline-3-carboxylic Acid]

- melting point: 186 to 190 °C
Compound: Cc1nc2cccc(OCC(C)(C)NC(=O)C3CCC3)c2c(N)c1C(=O)O [Example 142, 4-amino-5-(2-(cyclobutanecarboxamido)-2-methylpropoxy)-2-methylquinoline-3-carboxylic Acid]

- melting point: 184 to 186 °C
Compound: Cc1nc2cccc(OC3CCN(C(=O)C(C)C)CC3)c2c(N)c1C(=O)O [Example 143, 4-amino-5-((1-isobutyrylpiperidin-4-yl)oxy)-2-methylquinoline-3-carboxylic Acid]

- melting point: 168 to 170 °C
Compound: CCNC(=O)C(C)(C)COc1cccc2nc(C)c(C(=O)O)c(N)c12 [Example 144, 4-amino-5-(3-(ethylamino)-2,2-dimethyl-3-oxopropoxy)-2-methylquinoline-3-carboxylic Acid]

- melting point: 175 to 178 °C
Compound: Cc1nc2cccc(OCC(C)(C)NC(=O)CC3CCOCC3)c2c(N)c1C(=O)O [Example 145, 4-amino-2-methyl-5-(2-methyl-2-(2-(tetrahydro-2H-pyran-4-yl)acetamido)-propoxy)quinoline-3-carboxylic Acid]

- melting point: 177 to 179 °C
Compound: Cc1nc2cccc(OCC(C)(C)C(=O)NCC3CC3)c2c(N)c1C(=O)O [Example 146, 4-amino-5-(3-((cyclopropylmethyl)amino)-2,2-dimethyl-3-oxopropoxy)-2-methylquinoline-3-carboxylic Acid]

- melting point: 195 to 199 °C
Compound: CCCCNC(=O)C(C)(C)COc1cccc2nc(C)c(C(=O)O)c(N)c12 [Example 147, 4-amino-5-(3-(butylamino)-2,2-dimethyl-3-oxopropoxy)-2-methylquinoline-3-carboxylic Acid]

- % Remaining @ 1 hr ([1]; buffer, 1 h, 100 ppm, pH 2.8): 98.02%
- % Remaining @ 2 hrs ([1]; buffer, 2 h, 100 ppm, pH 2.8): 99.54%
- % Remaining @ 4 hrs ([1]; buffer, 4 h, 100 ppm, pH 2.8): 98.74%
- % Remaining @ 6 hrs ([1]; buffer, 6 h, 100 ppm, pH 2.8): 95.55%
Compound: O=C(O)/C=C/c1ccc(O)c(O)c1 [caffeic acid]

- % Remaining @ 1 hr ([1]; buffer, 1 h, 100 ppm, pH 2.8): 99.13%
- % Remaining @ 2 hrs ([1]; buffer, 2 h, 100 ppm, pH 2.8): 99.76%
- % Remaining @ 4 hrs ([1]; buffer, 4 h, 100 ppm, pH 2.8): 98.13%
Compound: O=c1ccc2ccc(O)c(O)c2o1 [daphnetin]

- % Remaining @ 1 hr ([1]; buffer, 1 h, 100 ppm, pH 2.8): 95.41%
- % Remaining @ 2 hrs ([1]; buffer, 2 h, 100 ppm, pH 2.8): 96.49%
- % Remaining @ 4 hrs ([1]; buffer, 4 h, 100 ppm, pH 2.8): 93.43%
- % Remaining @ 6 hrs ([1]; buffer, 6 h, 100 ppm, pH 2.8): 93.85%
Compound: COc1cc(/C=C/C(=O)O)ccc1O [ferulic acid]

- % Remaining @ 1 hr ([1]; buffer, 1 h, 12.5 ppm, pH 2.8): 90.83%
- % Remaining @ 2 hrs ([1]; buffer, 2 h, 12.5 ppm, pH 2.8): 82.75%
- % Remaining @ 4 hrs ([1]; buffer, 4 h, 12.5 ppm, pH 2.8): 57.70%
- % Remaining @ 6 hrs ([1]; buffer, 6 h, 12.5 ppm, pH 2.8): 24.54%
Compound: COc1cc([C@@H]2CC(=O)c3c(O)cc(O)cc3O2)ccc1O [homoeriodictol, homoeriodictyol]

- % Remaining @ 1 hr ([1]; buffer, 1 h, 50 ppm, pH 2.8): 90.42%
- % Remaining @ 2 hrs ([1]; buffer, 2 h, 50 ppm, pH 2.8): 75.92%
- % Remaining @ 4 hrs ([1]; buffer, 4 h, 50 ppm, pH 2.8): 55.54%
- % Remaining @ 6 hrs ([1]; buffer, 6 h, 50 ppm, pH 2.8): 41.50%
Compound: C[C@@H]1O[C@@H](O[C@H]2[C@H](Oc3cc(O)c4c(c3)O[C@H](c3ccc(O)cc3)CC4=O)O[C@H](CO)[C@@H](O)[C@@H]2O)[C@H](O)[C@H](O)[C@H]1O [naringin]

- % Remaining @ 1 hr ([1]; buffer, 1 h, 50 ppm, pH 2.8): 91.42%
- % Remaining @ 2 hrs ([1]; buffer, 2 h, 50 ppm, pH 2.8): 82.53%
- % Remaining @ 4 hrs ([1]; buffer, 4 h, 50 ppm, pH 2.8): 66.95%
- % Remaining @ 6 hrs ([1]; buffer, 6 h, 50 ppm, pH 2.8): 56.72%
Compound: COc1ccc(CCC(=O)c2c(O)cc(O[C@@H]3O[C@H](CO)[C@@H](O)[C@H](O)[C@H]3O[C@@H]3O[C@@H](C)[C@H](O)[C@@H](O)[C@H]3O)cc2O)cc1O [neohesperidin dihydrochalcone]

- % Remaining @ 1 hr ([1]; buffer, 1 h, 25 ppm, pH 2.8): 89.62%
- % Remaining @ 2 hrs ([1]; buffer, 2 h, 25 ppm, pH 2.8): 80.75%
- % Remaining @ 4 hrs ([1]; buffer, 4 h, 25 ppm, pH 2.8): 64.60%
- % Remaining @ 6 hrs ([1]; buffer, 6 h, 25 ppm, pH 2.8): 50.64%
Compound: O=C(CCc1ccc(O)cc1)c1c(O)cc(O)cc1O [phloretin]

- % Remaining @ 4 hrs ([1]; buffer, 4 h, 100 ppm, pH 2.8): 100.07%
- % Remaining @ 6 hrs ([1]; buffer, 6 h, 100 ppm, pH 2.8): 95.72%
Compound: COc1cc2ccc(=O)oc2cc1O [scopoletin]
